The source of these data is US20230071672A1, “PRESERVING FLUOROPHORE FUNCTION” (Lions VisionGift, priority 2021, published 2023).

The test system of one data set is corneas. Kind of data set: Staining of corneas for 15 minutes and fluorescence microscopy imaging after storage of the stain. In kind it is cell-based. As for the experimental part:
Calcein AM (2.5 μg/mL) was prepared with 1.7% sodium hyaluronic acid in a balanced salt solution. Three corneas were stained for 15 minutes and imaged under the same conditions. The cornea shown in FIG. 1A was stained with the mixture immediately after preparation. The cornea shown in FIG. 1B was stained with the mixture after the mixture had been stored frozen for 5 days. The cornea shown in FIG. 1C was stained with the mixture after the mixture had been stored frozen for 3 months.
Calcein-AM (2.5 μg/mL) was prepared according to manufacturer's recommendations. All corneas were stained for 15 minutes and imaged under the same conditions.

For data set [1] the following is noted: in water and alcohol; cited from earlier work.
The conditions of data set [2]: stored over night at 4° C., or frozen and thawed; cited from earlier work.

Take calcein AM: in the data set on corneas (stored under 4° C. refrigeration, protected from light, overnight, five days, one month, three months, FIGS. 2B-2E), the “fluorescence signal with storage time” value is on record as “loses intensity with the storage time length”. For the same substance, the “fluorescence signal after storage” value in the data set on corneas (three months' storage under 4° C. refrigeration, FIG. 2E) is reported as “completely lost”. Besides, in data set [1], the solubility result is recorded as “only slightly soluble”. Besides, the functionality after storage result in data set [2] is given as “lose functionality”.
